Assays:
Format in all cases: functional
RPMI-8226 = assay: Antiproliferative activity against human RPMI8226 cells assessed as cell viability at 10^-5 M incubated for 48 hrs by sulforhodamine B assay relative to control; conditions: RPMI-8226, 48 h, read-out: Activity
A549 = assay: Antiproliferative activity against human A549 cells assessed as cell viability at 10^-5 M incubated for 48 hrs by sulforhodamine B assay relative to control; conditions: A549, 48 h, read-out: Activity
EKVX = assay: Antiproliferative activity against human EKVX cells assessed as cell viability at 10^-5 M incubated for 48 hrs by sulforhodamine B assay relative to control; conditions: read-out: Activity
HOP-92 = assay: Antiproliferative activity against human HOP92 cells assessed as cell viability at 10^-5 M incubated for 48 hrs by sulforhodamine B assay relative to control; conditions: HOP-92, 48 h, read-out: Activity
NCI-H226 = assay: Antiproliferative activity against human NCI-H226 cells assessed as cell viability at 10^-5 M incubated for 48 hrs by sulforhodamine B assay relative to control; conditions: NCI-H226, 48 h, read-out: Activity
NCI-H23 = assay: Antiproliferative activity against human NCI-H23 cells assessed as cell viability at 10^-5 M incubated for 48 hrs by sulforhodamine B assay relative to control; conditions: NCI-H23, 48 h, read-out: Activity
NCI-H522 = assay: Antiproliferative activity against human NCI-H522 cells assessed as cell viability at 10^-5 M incubated for 48 hrs by sulforhodamine B assay relative to control; conditions: NCI-H522, 48 h, read-out: Activity
COLO 205 = assay: Antiproliferative activity against human COLO205 cells assessed as cell viability at 10^-5 M incubated for 48 hrs by sulforhodamine B assay relative to control; conditions: COLO 205, 48 h, read-out: Activity
HCC 2998 = assay: Antiproliferative activity against human HCC2998 cells assessed as cell viability at 10^-5 M incubated for 48 hrs by sulforhodamine B assay relative to control; conditions: HCC 2998, 48 h, read-out: Activity
SW-620 = assay: Antiproliferative activity against human SW620 cells assessed as cell viability at 10^-5 M incubated for 48 hrs by sulforhodamine B assay relative to control; conditions: SW-620, 48 h, read-out: Activity
SF-295 = assay: Antiproliferative activity against human SF295 cells assessed as cell viability at 10^-5 M incubated for 48 hrs by sulforhodamine B assay relative to control; conditions: SF-295, 48 h, read-out: Activity
SF-539 = assay: Antiproliferative activity against human SF539 cells assessed as cell viability at 10^-5 M incubated for 48 hrs by sulforhodamine B assay relative to control; conditions: SF-539, 48 h, read-out: Activity
M14 = assay: Antiproliferative activity against human M14 cells assessed as cell viability at 10^-5 M incubated for 48 hrs by sulforhodamine B assay relative to control; conditions: M14, 48 h, read-out: Activity
MDA-MB-435 = assay: Antiproliferative activity against human MDA-MB-435 cells assessed as cell viability at 10^-5 M incubated for 48 hrs by sulforhodamine B assay relative to control; conditions: MDA-MB-435, 48 h, read-out: Activity
SK-MEL-2 = assay: Antiproliferative activity against human SK-MEL-2 cells assessed as cell viability at 10^-5 M incubated for 48 hrs by sulforhodamine B assay relative to control; conditions: SK-MEL-2, 48 h, read-out: Activity
SK-MEL-28 = assay: Antiproliferative activity against human SK-MEL-28 cells assessed as cell viability at 10^-5 M incubated for 48 hrs by sulforhodamine B assay relative to control; conditions: SK-MEL-28, 48 h, read-out: Activity
UACC-257 = assay: Antiproliferative activity against human UACC257 cells assessed as cell viability at 10^-5 M incubated for 48 hrs by sulforhodamine B assay relative to control; conditions: UACC-257, 48 h, read-out: Activity
OVCAR-3 = assay: Antiproliferative activity against human OVCAR3 cells assessed as cell viability at 10^-5 M incubated for 48 hrs by sulforhodamine B assay relative to control; conditions: OVCAR-3, 48 h, read-out: Activity
OVCAR-4 = assay: Antiproliferative activity against human OVCAR4 cells assessed as cell viability at 10^-5 M incubated for 48 hrs by sulforhodamine B assay relative to control; conditions: OVCAR-4, 48 h, read-out: Activity
OVCAR-5 = assay: Antiproliferative activity against human OVCAR5 cells assessed as cell viability at 10^-5 M incubated for 48 hrs by sulforhodamine B assay relative to control; conditions: OVCAR-5, 48 h, read-out: Activity
NCI/ADR-RES = assay: Antiproliferative activity against human NCI-ADR-RES cells assessed as cell viability at 10^-5 M incubated for 48 hrs by sulforhodamine B assay relative to control; conditions: read-out: Activity
SK-OV-3 = assay: Antiproliferative activity against human SKOV3 cells assessed as cell viability at 10^-5 M incubated for 48 hrs by sulforhodamine B assay relative to control; conditions: SK-OV-3, 48 h, read-out: Activity
CAKI-1 = assay: Antiproliferative activity against human Caki1 cells assessed as cell viability at 10^-5 M incubated for 48 hrs by sulforhodamine B assay relative to control; conditions: CAKI-1, 48 h, read-out: Activity
UO-31 = assay: Antiproliferative activity against human UO31 cells assessed as cell viability at 10^-5 M incubated for 48 hrs by sulforhodamine B assay relative to control; conditions: UO-31, 48 h, read-out: Activity
DU-145 = assay: Antiproliferative activity against human DU145 cells assessed as cell viability at 10^-5 M incubated for 48 hrs by sulforhodamine B assay relative to control; conditions: DU-145, 48 h, read-out: Activity
MCF7 = assay: Antiproliferative activity against human MCF7 cells assessed as cell viability at 10^-5 M incubated for 48 hrs by sulforhodamine B assay relative to control; conditions: MCF7, 48 h, read-out: Activity
BT-549 = assay: Antiproliferative activity against human BT549 cells assessed as cell viability at 10^-5 M incubated for 48 hrs by sulforhodamine B assay relative to control; conditions: BT-549, 48 h, read-out: Activity
T47D = assay: Antiproliferative activity against human T47D cells assessed as cell viability at 10^-5 M incubated for 48 hrs by sulforhodamine B assay relative to control; conditions: read-out: Activity

| SMILES | viability at 10 µM (RPMI-8226) | viability at 10 µM (A549) | viability at 10 µM (EKVX) | viability at 10 µM (HOP-92) | viability at 10 µM (NCI-H226) | viability at 10 µM (NCI-H23) | viability at 10 µM (NCI-H522) | viability at 10 µM (COLO 205) | viability at 10 µM (HCC 2998) | viability at 10 µM (SW-620) | viability at 10 µM (SF-295) | viability at 10 µM (SF-539) | viability at 10 µM (M14) | viability at 10 µM (MDA-MB-435) | viability at 10 µM (SK-MEL-2) | viability at 10 µM (UACC-257) | viability at 10 µM (OVCAR-3) | viability at 10 µM (OVCAR-4) | viability at 10 µM (OVCAR-5) | viability at 10 µM (NCI/ADR-RES) | also measured |
| --- | --- | --- | --- | --- | --- | --- | --- | --- | --- | --- | --- | --- | --- | --- | --- | --- | --- | --- | --- | --- | --- |
| COc1cc2c(c3c1OCCO3)C(=O)NC1C2CC(O)C(O)C1O (racemic) | 100% | 93.7% | 103% | 77.7% | 95.7% | 102% | 93% | 111% | 99.9% | 107% | 104% | 105% | 104% | 110% | 110% | 97.5% | 101% | 108% | 103% | 111% | viability at 10 µM (SK-MEL-28): 106%; viability at 10 µM (SK-OV-3): 104%; viability at 10 µM (CAKI-1): 93.4%; viability at 10 µM (UO-31): 89.8%; viability at 10 µM (DU-145): 103%; viability at 10 µM (MCF7): 97.3%; viability at 10 µM (BT-549): 98.3%; viability at 10 µM (T47D): 87.9% |
| CCOc1cc2c(cc1OCC)C1CC(O)C(O)C(O)C1NC2=O (racemic) | 102% | 101% | 102% | 102% | 97.8% | 96.1% | 89.5% | 106% | 106% | 99.4% | 94.9% | 98% | 99.1% | 109% | 100% | 97.5% | 107% | 107% | 101% | 101% | viability at 10 µM (SK-MEL-28): 110%; viability at 10 µM (SK-OV-3): 95.9%; viability at 10 µM (CAKI-1): 87%; viability at 10 µM (UO-31): 76.4%; viability at 10 µM (DU-145): 106%; viability at 10 µM (MCF7): 94.4%; viability at 10 µM (BT-549): 101%; viability at 10 µM (T47D): 90.2% |
| O=C1NC2C(CC(O)C(O)C2O)c2cc3c(cc21)OCCO3 (racemic) | 107% | 109% | 97.4% | 101% | 97.7% | 107% | 101% | 111% | 109% | 104% | 101% | 101% | 98.9% | 107% | 109% | 107% | 111% | 107% | 107% | 107% | viability at 10 µM (SK-OV-3): 103%; viability at 10 µM (CAKI-1): 94.4%; viability at 10 µM (UO-31): 93.2%; viability at 10 µM (DU-145): 114%; viability at 10 µM (MCF7): 98.6%; viability at 10 µM (BT-549): 98.3%; viability at 10 µM (T47D): 104% |
| CCCOc1cc2c(cc1OCC)C1CC(O)C(O)C(O)C1NC2=O (racemic) | 104% | 107% | 104% | 110% | 99.6% | 108% | 96.7% | 110% | 106% | 101% | 102% | 99.2% | 103% | 105% | 105% | 104% | 112% | 107% | 105% | 105% | viability at 10 µM (SK-OV-3): 109%; viability at 10 µM (CAKI-1): 95.9%; viability at 10 µM (UO-31): 88.9%; viability at 10 µM (DU-145): 110%; viability at 10 µM (MCF7): 99%; viability at 10 µM (BT-549): 97.1%; viability at 10 µM (T47D): 105% |
